Measured values: patent publication US5626869A, “Pharmaceutical composition containing a defined lipid system” (Pharmacia & Upjohn AB, priority 1992, dated 1997)

System: FXa
Details: in vivo
Experimental: New Zealand white rabbits of both sexes, weighing 2.5-3.5 kg were used in all experiments. […] The rabbits were anaesthetized with Mebumal, 20 mg/kg. The anaesthesia was subsequently maintained as required. The animals were shaved and a medial laparotomy performed. The test compounds were then injected directly into the duodenum, after which the peritoneal cavity was closed. Rectal administration was performed by means of a syringe coupled to a plastic tube designed for use in the rectum of rabbits. The dosage was checked by weighing of the syringe and connecting tubings before and after administering the test compounds.
Blood samples (1 ml) were collected at 0.25, 0.5, 0.75, 1, 1.5, 2, 2.5, 3, 4, 5, 6, 7, 8, 9, and 10 hours with the aid of catheter inserted in the ear artery and mixed with sodium […] to a final concentration of 0.04M. The tubes were kept on ice until centrifuged at 800 g for 10 minutes. The anti-FXa activity in plasma was determined with an initial rate assay using bovine FXa (Kabi Pharmacia) and the chromogenic substrate S-2222.

Substance: heparin
- degree of absorption compared with Fragmin: significantly lower than that of Fragmin®
- rectal absorption when admixed with the lipid system: significantly increased
- anti-FXa activity detected in plasma (2 mg/kg): detectable levels of anti-FXa activity
- average absorption (rabbit, 2 mg/kg): 15.7%±8
